Source: paper PMC3236199, “Development of Derivatives of 3, 3′-Diindolylmethane as Potent Leishmania donovani Bi-Subunit Topoisomerase IB Poisons” (PLoS ONE, 2011)

Experiments:
[1] = tested on: wild type L. donovani AG83 promastigotes; assay: DNA fragmentation assay (cell death detection ELISA), wild type; type: cell-based, Leishmania donovani; conditions: 20 µM
Method: Leishmanial cells were cultured in 24-well plates and treated with 20 µM of DIM, DPDIM, DMDIM and DMODIM for different times. Samples were collected at requisite time points and subjected to measurement of DNA fragmentations. Cytoplasmic histone-associated DNA fragments (mononucleosome and oligonucleosomes) formed during apoptosis were detected using a cell death detection ELISA kit (Roche Biochemicals) by spectrophotometric measurement of microtiter plates in a Thermo MULTISKAN EX plate reader at 405 nm. The relative percentages (with respect to samples treated with micrococcal nuclease and normalized to percentage values) were plotted as units of time or drug concentrations as described previously.
The internucleosomal DNA digestion by an endogenous nuclease (genomic DNA fragmentation) is considered as a hallmark of apoptotic cell death. […] To investigate whether these derivatives also do the same, we performed the DNA fragmentation assay with wild type L. donovani AG83 promastigotes and DIM resistant parasites (Fig. 4) by ELISA as described in Materials and Methods. […] DNA fragmentation increased to 85%, 89%, 81% and 71% at 8 h of treatment in wild type parasites. The DIM resistant parasites (LdDR50) have much less effect in DNA fragmentation (13% at 6 h and 17% at 8 h) when treated with 20 µM DIM. On the other hand the extents of DNA fragmentations were 63%, 51% and 40% at 6 h treatment with DPDIM, DMDIM and DMODIM respectively. The extent of fragmentation increased to 82%, 74% and 65% after treatment for 8 h with the drugs as mentioned above.
Figure 4 DIM derivatives-induced fragmentation of genomic DNA in wild type and DIM resistant parasites. Relative percentage of DNA fragmentation measured by cell death detection ELISA kit in L. donovani promastigotes treated with DIM, DPDIM, DMDIM and DMODIM. The experiments were performed three times and representative data from one of these experiments as means ± SD.

[2] = tested on: DIM resistant L. donovani axenic amastigotes; assay: Cell viability assay, DIM resistant axenic amastigotes; type: cell-based; conditions: Leishmania donovani, 12 h, read-out: growth inhibited
Method: L. donovani strain AG83 and DIM resistant parasite DR50 promastigotes were grown at 22°C in M199 liquid media supplemented with 10% FBS as described. Axenic amastigotes were cultured in modified M199 medium (pH 5.3) supplemented with 10 mM sodium succinate, 40 mM HEPES and 25% FCS and maintained at 37°C with 5% CO2.The effect of drugs on the viability of Leishmania parasites was determined by direct microscopic counting using light microscope (40× objective) in a haemocytometer. The cells at the exponential phase were collected and transferred into 24-well plate (3.5×10^6 cells per well). The cells were then incubated for 12 h in the presence of various concentrations of DIM, DPDIM, DMDIM and DMODIM (1, 5, 10, 20 and 50 µM). For other experiments, 10^4 cells were taken and grown in presence of the respective derivatives for a period of 30 days. For each 5 day interval, a small amount of aliquots were taken out. After incubation the cells were centrifuged and cell pellet was washed with PBS (1×) twice and finally suspended in 1 ml PBS (1×). Fifty µl of aliquot was taken, mixed with 0.4% trypan blue solution and incubated for 3 min at 22°C. One drop of the mixture was transferred to haemocytometer and the clear (live) and blue (dead) cells were counted. The total number of viable cells in aliquot was calculated by multiplying the total number of viable cells by 2 (the dilution factor for trypan blue). […] Percentages of viable cells were calculated using the formula: [drawing 1]
Figure 3 Effectiveness of clearance of internalized L. donovani (AG83) from in vitro infected mouse M [drawing 3] . […] Cells were fixed, stained with Giemsa and counted under bright field microscope. […] Experiments were carried out for three times and representative results are the mean ± S.D. (B) Growth of DIM resistant L. donovani axenic amastigotes were monitored in presence of increasing concentrations (2, 5, 10, 20 and 50 µM) of DIM, DPDIM, DMDIM and DMODIM for 12 h. […] Growth of the parasites treated with the compounds was expressed as percentage of the viable promastigotes compared with that of control. […]

Row | Structure (SMILES) | fragmentation of DNA ([1]; 6 h) | fragmentation of DNA ([1]; 8 h) | inhibition at 50 µM [2]
1 | c1ccc2c(Cc3c[nH]c4ccccc34)c[nH]c2c1 [DIM, 3, 3′-diindolyl methane, reference compound] | 73% | 85% | 
2 | c1ccc(-c2[nH]c3ccccc3c2Cc2c(-c3ccccc3)[nH]c3ccccc23)cc1 [DPDIM, 2,2′-diphenyl 3,3′-diindolyl methane] | 79% | 89% | 98%
3 | COc1ccc2[nH]cc(Cc3c[nH]c4ccc(OC)cc34)c2c1 [DMODIM, 5,5′-dimethoxy 3,3′-diindolyl methane] | 49% | 71% | 79%
4 | Cc1[nH]c2ccccc2c1Cc1c(C)[nH]c2ccccc12 [DMDIM, 2,2′-dimethyl 3,3′-diindolyl methane] | 60% | 81% | 92%
